Patent publication US20030203969A1, “Pharmaceutically active aromatic guanylhydrazones” (priority 2000, published 2003)

Key:
[1] = test system: MRC-5 (human embryonic lung fibroblast) cells; experiment: Drug toxicity in MRC-5 cells (CellTiter 96); assay type: cell-based; details: six day incubation, read-out: TC50 (the source's name)
Experimental: Drug toxicity is determined in parallel by seeding MRC-5 cells in 96 well plates and adding drugs to triplicate wells at two dilutions. After a six day incubation period, cell viability is determined using CellTiter 96 Aqueous One Solution (Promega).

[2] = test system: VZV strain ELLEN; experiment: VZV plaque reduction assay in MRC-5 cells; assay type: cell-based, Varicella-zoster virus
Experimental: MRC-5 (human embryonic lung fibroblast) cells (ATCC Cat. No. CCL-171) are seeded in 24 well plates using Eagle's Minimum Essential Medium (EMEM) supplemented with 10% heat-inactivated fetal bovine serum (FBS), L-glutamine, sodium pyruvate, non-essential amino acids, penicillin, and streptomycin. The plates are then incubated overnight at 37° C. and 5% CO2. The following day, media is aspirated and approximately 50-100 pfu (plaque forming units) of VZV strain ELLEN is added to the wells of each plate in a volume of 200 μl of assay media (EMEM supplemented with 5% heat-inactivated FBS, L-glutamine, sodium pyruvate, non-essential amino acids, penicillin, and streptomycin). The remaining wells of each plate serve as cellular control wells and receive 200 μl of assay media without virus. The virus is allowed to adsorb onto the cells for 1 hr at 37° C. and 5% CO2. Two dilutions of each test drug are prepared by diluting them in assay media containing 0.5% Methylcellulose. After the incubation period, 1 ml of each drug dilution is added to triplicate wells of a plate. Assay media (without drug) containing 0.5% Methylcellulose is added to the three cell control wells and to three virus control wells on each plate. The plates are incubated for 9-12 days to allow for plaque formation. […]

[3] = test system: clinical HIV-1 isolates; experiment: Inhibition of clinical HIV-1 isolates in PBMCs from HIV-1-infected patients; assay type: cell-based; details: d14
Experimental: HIV replication was measured either by p24 HIV Antigen Capture Assay Kit (ELISA; HIVAG-1 Monoclonal kit BIA011; Abbott) following the manufacturer's recommendation, or by using the Quantiplex HIV-1 RNA 3.0 Assay (bDNA) system (Chiron Diagnostics). The latter assay is a signal amplification nucleic acid probe assay (employing a sandwich nucleic acid hybridization procedure) for direct quantitation of HIV RNA in human plasma. There, in brief, HIV-1 is first concentrated from plasma by centrifugation. After release of genomic HIV-1 RNA from the virions, the RNA is captured to a microwell by a set of specific, synthetic oligonucleotide capture probes. A set of target probes hybridize to both the viral RNA and the pre-amplifier probes. The capture probes, comprised of 17 individual capture extenders, and the target probes, comprised of 81 individual target extenders, bind to different regions of the pol gene of the viral RNA. The amplifier probe hybridizes to the pre-amplifier forming a branched DNA (bDNA) complex. Then, multiple copies of an alkaline phosphatase labeled probe are hybridized to this immobilized bDNA complex. Detection is achieved by incubating the entire complex with a chemoluminescent substrate. Light emission is directly proportional to the amount of HIV-1 RNA present in each sample, and results are recorded as relative light units by an appropriate analyzer.
Peripheral blood mononuclear cells (PBMCs) from HIV-1-infected patients were isolated—(after informal consent was given)—by Biocoll (Biochrom) gradient centrifugation. 1×10^6/ml PBMCs were cultured (5 ml in a six well 32-mm plate) in presence of the test drugs or in DMSO (control diluent) in RPMI 1640 medium supplemented with 10% autologous serum and 2 mM L-Glutamine at 37° C. and 5% CO2.
The culture medium was changed every 3 days during the experiments. Once a week, each culture was split 1:1 and 2×10^6 feeder-PBMCs (per well) and recombinant Interleukin 2 (IL-2) [10U/ml] (Roche) was added. Prior to addition to the cell cultures, the feeder-PBMCs, prepared from 4 healthy donors, were treated for 4 days with PHA-P and PB (2 μg/ml each per 2×10^6 cells). At day 14, viability of the PBMCs (Trypan-blue staining), cell count and virus load (p24 antigen: Innotest HIV Antigen mAb, Innogenetics N. V., Gent, Belgium, or bDNA: HIV-1 RNA 3.0 Assay, Bayer AG, Tarrytown, N.Y., USA) was determined. No significant differences in cell viability were observed (˜75-80% vital cells).
At day 14 of cultivation, the virus replicated vigorously in all untreated cultures. Numbers describe percent inhibition of HIV-1 replication as compared to control experiments.

CC(=NNC(=N)N)c1cc(NC(=O)CCCCCCCCC(=O)Nc2cc(C(C)=NNC(=N)N)cc(C(C)=NNC(=N)N)c2)cc(C(C)=NNC(=N)N)c1 [Compound 4, N,N′-bis (3,5-diacetylphenyl) decane diamide tetrakis (amidinohydrazone)]
CC50 [1]: 13.6 µM | IC50 ([2]; MRC-5 cells newly infected with VZV): 4.69 µM | Comments ([2]; VZV, MRC-5 cells): Significant activity | percent inhibition of HIV-1 replication as compared to control ([3]; HIV-infected PBMCs from patient 1, 0.5 μM): 91.6% | percent inhibition of HIV-1 replication as compared to control ([3]; HIV-infected PBMCs from patient 1, 1.0 μM): 90.7% | percent inhibition of HIV-1 replication as compared to control ([3]; HIV-infected PBMCs from patient 2, 0.5 μM): 85.8% | percent inhibition of HIV-1 replication as compared to control ([3]; HIV-infected PBMCs from patient 2, 1.0 μM): 97.6% | percent inhibition of HIV-1 replication as compared to control ([3]; HIV-infected PBMCs from patient 3, 0.5 μM): 91% | percent inhibition of HIV-1 replication as compared to control ([3]; HIV-infected PBMCs from patient 3, 1.0 μM): 90%
